Data from patent publication US20070021391A1, “Preventive/remedy for urinary disturbance” (priority 2003, published 2007).
pIC50: −log10 of the molar value. Counter-ions that a name gives are not always drawn. Like-named read-outs stand apart in the source and are kept apart here.

Legend:
[1] = target: T1, acetylcholine esterase of human erythrocyte origin (Homo sapiens, UniProt P22303); experiment: biochemical; format: biochemical
T1 construct: acetylcholine esterase of human erythrocyte origin; purchased Sigma, St. Louis, Mo., USA; host or cells: human erythrocytes
T1 sequence (P22303 32-617 isoform P22303-2 limits assumed): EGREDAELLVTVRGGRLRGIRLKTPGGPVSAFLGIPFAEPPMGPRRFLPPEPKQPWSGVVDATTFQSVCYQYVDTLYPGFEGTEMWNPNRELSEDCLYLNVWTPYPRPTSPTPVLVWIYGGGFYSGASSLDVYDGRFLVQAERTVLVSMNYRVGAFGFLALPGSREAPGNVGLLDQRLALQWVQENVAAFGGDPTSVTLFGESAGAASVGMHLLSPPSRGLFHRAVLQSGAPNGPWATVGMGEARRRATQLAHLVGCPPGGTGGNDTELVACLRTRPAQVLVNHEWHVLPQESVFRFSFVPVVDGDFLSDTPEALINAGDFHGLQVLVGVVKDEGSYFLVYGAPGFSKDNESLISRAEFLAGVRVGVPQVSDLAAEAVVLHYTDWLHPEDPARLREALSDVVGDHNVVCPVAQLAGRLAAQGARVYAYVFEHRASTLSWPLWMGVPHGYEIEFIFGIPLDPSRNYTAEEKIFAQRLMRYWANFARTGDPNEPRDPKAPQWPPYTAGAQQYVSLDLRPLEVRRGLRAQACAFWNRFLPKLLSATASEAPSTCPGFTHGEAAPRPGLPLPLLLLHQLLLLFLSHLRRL

[2] = target: T2, butyrylcholine esterase of human serum origin (Homo sapiens, UniProt P06276); experiment: biochemical; format: biochemical
T2 construct: butyrylcholine esterase of human serum origin; purchased Biogenesis, Poole, UK; host or cells: human serum
T2 sequence (P06276 29-602): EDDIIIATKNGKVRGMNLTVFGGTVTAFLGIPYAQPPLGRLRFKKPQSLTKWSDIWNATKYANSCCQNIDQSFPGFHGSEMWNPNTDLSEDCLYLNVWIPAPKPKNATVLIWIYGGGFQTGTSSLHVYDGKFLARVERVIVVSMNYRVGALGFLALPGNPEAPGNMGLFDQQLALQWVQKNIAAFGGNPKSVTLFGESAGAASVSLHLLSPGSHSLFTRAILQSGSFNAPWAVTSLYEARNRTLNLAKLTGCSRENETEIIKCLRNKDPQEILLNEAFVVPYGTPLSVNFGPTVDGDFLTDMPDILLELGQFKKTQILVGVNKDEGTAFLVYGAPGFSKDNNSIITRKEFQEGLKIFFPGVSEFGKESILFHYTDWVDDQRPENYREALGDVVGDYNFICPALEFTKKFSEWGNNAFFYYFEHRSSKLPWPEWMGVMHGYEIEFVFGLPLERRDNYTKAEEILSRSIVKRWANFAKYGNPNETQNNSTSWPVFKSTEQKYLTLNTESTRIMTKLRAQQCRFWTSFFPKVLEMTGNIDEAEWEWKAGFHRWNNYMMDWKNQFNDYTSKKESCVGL
Method: The AChE inhibitory activity and the BuChE inhibitory activity were determined by a thiocholine method (Ellman method) using acetylcholine esterase of human erythrocyte origin (Sigma, St. Louis, Mo., USA) and butyrylcholine esterase of human serum origin (Biogenesis, Poole, UK). Acetylcholine esterase or butyrylcholine esterase was diluted to a concentration of 0.2 IU/mL with 80 mM tris-HCL buffers (pH=7.4) containing 0.3% bovine serum albumin (BSA) to prepare an enzyme preparation. […] The stock solution was diluted at 3-fold common ratio with 10% DMSO and 80 mM tris-HCl buffers containing 0.3% BSA. On a 96 wells microplate, 20 μL of the drug solution with a given concentration, 30 μL of 80 mM tris-HCl buffers containing 0.3% BSA and 50 μL of the enzyme preparation were distributed, and incubated at room temperature for 1 hour after shaking for 10 seconds. […] For the respective drugs, the test was repeated twice. The % of control of the increase in light absorption was calculated at each concentration with respect to the respective drugs. % of control=increase in light absorption of drug/increase in light absorption of control×100

[3] = test system: Hartley male guinea pig, urethane anesthesia; experiment: Pressure/flow study using guinea pig under continuous phenylephrine (Example 4); format: in vivo; settings: i.v., phenylephrine 3 μg/animal/min
Method: A parameter (the maximum urine flow rate) at urination and a parameter (bladder compliance) at the collection of urine were also measured by a method similar as Example 3 shown below, with respect to the compounds B1 to B6 ([Table 8]).
A Hartley male guinea pig of 4 to 5 weeks old (Japan SLC) was used. After urethane anesthesia, the medial incision of the lower abdomen was carried out, and the bladder was exposed. Two injection needles (20G) with which a polyethylene tube (PE-100) was linked were inserted in the bladder, and one needle was used for injection of saline and another needle was used for measurement of the inner pressure of the bladder. A catheter was inserted in fernoral vein, and phenylephrine was continuously administrated at a flow rate of 3 μg/animal/min. Saline was continuously injected at a speed of 18 mL/h, the injection was stopped after intermittent urination was confirmed 2 times at minimum, and the saline in the bladder was removed by suction. Injection was started again, and the injection was stopped when the raise of the inner pressure of the bladder just before urination was confirmed. The amount of urine eliminated was measured by an electronic weighing machine and the inner pressure of the bladder was measured using a pressure transducer. The analogue data of the weight of urine and the inner pressure of the bladder were inputted in a multi-channel data analyzer (MP-100A-CE, Biopac systems), and analyzed by a proprietary software (Acqknowledge, Biopac systems). As the parameters, the maximum urine flow rate and bladder compliance were measured. Saline in the bladder was extracted after 10 min of the intravenous administration of the compound, and injection was started again to carry out measurement. The compounds were dissolved with DMSO so that administration volume was 0.5 mL/kg. The change rate of respective parameters before and after administration of the compounds was calculated and the calibration of significant difference was carried out by a solvent administration group and t calibration.

[4] = test system: bladder muscle; parameters: species or system guinea pig; settings: for effect on basic tension: drug alone
[5] = test system: Hartley male guinea pig, urethane anesthesia; experiment: Pressure/flow study using guinea pig (Example 3); format: in vivo; settings: for Amount of urination, proportion for value before administration (%) / At maximum urine flow rate Inner pressure of bladder, proportion for value before administration (%) / Maximum urine flow rate, proportion for value before administration (%): i.v.; for Bladder compliance, proportion for value before administration (%) / Bladder volume, proportion for value before administration (%): iv; for change of the parameters at urination and at collection of urine (text): intravenous administration
Method: A Hartley male guinea pig of 5 weeks old (Japan SLC) was used. After urethane anesthesia, the medial incision of the lower abdomen was carried out, and the bladder was exposed. Two injection needles (20G) with which a polyethylene tube (PE-100) was linked were inserted in the bladder, and one needle was used for injection of saline and another needle was used for measurement of the inner pressure of the bladder. The injection of saline was continuously carried out at a rate of 18 mL/h using a syringe pump (SP-100S, JMS, and Hiroshima), the injection was stopped after intermittent urination was confirmed 3 times at minimum, and the saline in the bladder was removed by suction. Injection was started again, and the injection was stopped when the raise of the inner pressure of the bladder just before urination was confirmed. The amount of urine excreted was measured by an electronic weighing machine (HX-400, A&D, and Tokyo) and the inner pressure of the bladder was measured using a pressure transducer (AP641G, NIPPON KODEN Corporation). The analogue data of the weight of urine and the inner pressure of the bladder were inputted in a multi-channel data analyzer (MP-100A-CE, Biopac systems), and analyzed by a proprietary software (Acqknowledge, Biopac systems). The sampling interval of data was 0.1 second and a low pass filter was applied to the data of discharge amount and urine flow rate at 0.5 Hz in order to remove noise. A delay time of 0.1 second in weighing the urine was rectified, and the urine flow rate was determined by differentiating the value of discharge amount. After a value before twice administration of the drug was measured, the drugs (the compound A, distigmine, neostigigmine and bethanechol) were intravenously administrated. Saline in the bladder was extracted after 10 minutes of administration of the compound A, bethanechol and neostigigmine and after 30 minutes of administration of distigmine, and injection was started again to measure data. The drugs were dissolved with distilled water so that administration volume was 0.5 mL/kg. Parameters (bladder volume, the amount of urination, the maximum urine flow rate, the inner pressure of the bladder at the maximum urine flow, bladder compliance) below were measured. The bladder compliance was calculated from intersection point (the threshold of bladder volume, threshold pressure) which was obtained by determining regression line in the respective curves of the inner pressure of the bladder at collection of urine and urinary reflex. The change rate before and after administration of the drug was calculated for the respective parameters and the calibration of significant difference was carried out by a solvent administration group and Dunnett calibration (Table 6 and Table 7).

[6] = mean value of twice tests, read-out: AchE IC50
[7] = mean value of twice tests, read-out: BuChE IC50
[8] = 0.3 μM, 30 minutes, change of basic tension, 100 mM KCl contraction = 100%
[9] = 1 μM, 30 minutes, change of basic tension, 100 mM KCl contraction = 100%
[10] = 3 μM, 30 minutes, change of basic tension, 100 mM KCl contraction = 100%

SMILES: CN(CCCCC(=O)c1ccc2c(c1)n(C)c(=O)n2C)CCc1ccccc1Cl [Compound B3, 5-[5-[[2-(2-chlorophenyl)ethyl](methyl)amino]pentanoyl]-1,3-dimethyl-1,3-dihydro-2H-benzoimidazol-2-one) hydrochloride]
- Selectivity b/a ([1]; BuChE IC50/AChE IC50 (Table 3)): >350
- pIC50 [1, 6]: 7.55
- pIC50 [2, 7]: < 5.00
- Bladder compliance, proportion for value before administration ([3]; 0.1 mg/kg): 94.7 ± 11.1
- Maximum urine flow rate, proportion for value before administration ([3]; 0.1 mg/kg): 150.8 ± 19.4

SMILES: O=C(CCCCNCCc1ccccc1Cl)c1cc2c3c(c1)CC(=O)N3CCC2 [Compound B1, 8-[5-[[2-(2-chlorophenyl)ethyl]amino]pentanoyl]-5,6-dihydro-4H-pyrrolo[3,2,1-ij]quinolin-2(1H)-one) hydrochloride]
- Selectivity b/a ([1]; BuChE IC50/AChE IC50 (Table 3)): 100
- pIC50 [1, 6]: 7.25
- pIC50 [2, 7]: 5.24
- Bladder compliance, proportion for value before administration ([3]; 0.1 mg/kg): 105.1 ± 12.9
- Maximum urine flow rate, proportion for value before administration ([3]; 0.1 mg/kg): 170.4 ± 27.8

SMILES: COc1ccccc1CCNCCCCC(=O)c1ccc2c(c1)n(C)c(=O)n2C [Compound B5, 5-[5-[[2-(2-methoxyphenyl)ethyl]amino]pentanoyl]-1,3-dimethyl-1,3-dihydro-2H-benzoimidazol-2-one) hydrochloride]
- Selectivity b/a ([1]; BuChE IC50/AChE IC50 (Table 3)): >150
- pIC50 [1, 6]: 7.19
- pIC50 [2, 7]: < 5.00
- Bladder compliance, proportion for value before administration ([3]; 0.03 mg/kg): 95.0 ± 4.3
- Maximum urine flow rate, proportion for value before administration ([3]; 0.03 mg/kg): 135.5 ± 19.1

SMILES: CN(CCCCC(=O)c1ccc2[nH]c(=O)[nH]c2c1)CCc1ccccc1Cl [Compound B2, 5-[5-[[2-(2-chlorophenyl)ethyl](methyl)amino]pentanoyl]-1,3-dihydro-2H-benzoimidazol-2-one) hydrochloride]
- Selectivity b/a ([1]; BuChE IC50/AChE IC50 (Table 3)): >45
- pIC50 [1, 6]: 6.65
- pIC50 [2, 7]: < 5.00
- Bladder compliance, proportion for value before administration ([3]; 0.3 mg/kg): 95.0 ± 5.1
- Maximum urine flow rate, proportion for value before administration ([3]; 0.3 mg/kg): 138.1 ± 13.1

SMILES: CC(C)NP(=O)(NC(C)C)OP(=O)(NC(C)C)NC(C)C [iso-OMPA, tetraisopropylpyrophosphoramide]
- inhibitory activity for human butyrylcholine esterase [2]: showed the inhibitory activity to only butyrylcholine esterase
- Tension (%) ([4]; Table 5: iso-OMPA 10 μM, Compound A 0 μM): −1.31 ± 0.21%
- Tension (%) ([4]; Table 5: iso-OMPA 100 μM, Compound A 0 μM): −0.85 ± 0.38%
- effect on basic tension [4]: alone did not influence tension either

SMILES: CCNC(=O)N1CCc2cc(C(=O)CCCCNCCc3ccccc3OC)ccc21.Cl [Compound B4, N-ethyl-5-[5-[[2-(2-methoxyphenyl)ethyl]amino]pentanoyl]-1-indolincarboxamide hydrochloride]
- pIC50 [1]: 6.93
- Selectivity b/a ([1]; BuChE IC50/AChE IC50 (Table 3)): >85
- pIC50 ([2]; read-out: BuChE IC50): < 5.00
- Bladder compliance, proportion for value before administration ([3]; 0.3 mg/kg): 104.2 ± 8.1
- Maximum urine flow rate, proportion for value before administration ([3]; 0.3 mg/kg): 165.4 ± 14.9

SMILES: CC(C[N+](C)(C)C)OC(N)=O (stereo not shown) [Bethanechol]
- Amount of urination, proportion for value before administration (%) ([5]; 0.1 mg/kg): 74.5 ± 13.1%
- At maximum urine flow rate Inner pressure of bladder, proportion for value before administration (%) ([5]; 0.1 mg/kg): 107.0 ± 7.1%
- Maximum urine flow rate, proportion for value before administration (%) ([5]; 0.1 mg/kg): 72.8 ± 9.8%
- Bladder compliance, proportion for value before administration (%) ([5]; 0.1 mg/kg): 75.7 ± 9.8%
- Bladder volume, proportion for value before administration (%) ([5]; 0.1 mg/kg): 86.0 ± 2.5%
- Amount of urination, proportion for value before administration (%) ([5]; 0.3 mg/kg): 63.5 ± 8.5%
- At maximum urine flow rate Inner pressure of bladder, proportion for value before administration (%) ([5]; 0.3 mg/kg): 99.2 ± 6.4%
- Maximum urine flow rate, proportion for value before administration (%) ([5]; 0.3 mg/kg): 81.00 ± 12.1%
- Bladder compliance, proportion for value before administration (%) ([5]; 0.3 mg/kg): 62.6 ± 6.8 %
- Bladder volume, proportion for value before administration (%) ([5]; 0.3 mg/kg): 85.3 ± 6.3%
- Amount of urination, proportion for value before administration (%) ([5]; 1 mg/kg): 39.1 ± 8.0 %
- At maximum urine flow rate Inner pressure of bladder, proportion for value before administration (%) ([5]; 1 mg/kg): 104.9 ± 13.0%
- Maximum urine flow rate, proportion for value before administration (%) ([5]; 1 mg/kg): 66.1 ± 12.3%
- Bladder compliance, proportion for value before administration (%) ([5]; 1 mg/kg): 45.3 ± 4.9 %
- Bladder volume, proportion for value before administration (%) ([5]; 1 mg/kg): 66.3 ± 6.0 %
- change of the parameters at urination and at collection of urine (text) [5]: lowered the amount of urination, bladder volume and bladder compliance significantly

SMILES: CN(CCCCCCN(C)C(=O)Oc1ccc[n+](C)c1)C(=O)Oc1ccc[n+](C)c1 [Distigmine]
- Amount of urination, proportion for value before administration (%) ([5]; 0.03 mg/kg): 73.9 ± 4.4%
- At maximum urine flow rate Inner pressure of bladder, proportion for value before administration (%) ([5]; 0.03 mg/kg): 112.7 ± 6.6%
- Maximum urine flow rate, proportion for value before administration (%) ([5]; 0.03 mg/kg): 75.1 ± 6.8%
- Bladder compliance, proportion for value before administration (%) ([5]; 0.03 mg/kg): 64.6 ± 6.0%
- Bladder volume, proportion for value before administration (%) ([5]; 0.03 mg/kg): 80.6 ± 3.3%
- Amount of urination, proportion for value before administration (%) ([5]; 0.1 mg/kg): 89.8 ± 10.3%
- At maximum urine flow rate Inner pressure of bladder, proportion for value before administration (%) ([5]; 0.1 mg/kg): 115.9 ± 4.2%
- Maximum urine flow rate, proportion for value before administration (%) ([5]; 0.1 mg/kg): 76.4 ± 5.8%
- Bladder compliance, proportion for value before administration (%) ([5]; 0.1 mg/kg): 53.4 ± 2.2 %
- Bladder volume, proportion for value before administration (%) ([5]; 0.1 mg/kg): 83.6 ± 5.9%
- Amount of urination, proportion for value before administration (%) ([5]; 0.3 mg/kg): 65.8 ± 11.9%
- At maximum urine flow rate Inner pressure of bladder, proportion for value before administration (%) ([5]; 0.3 mg/kg): 142.4 ± 6.1 %
- Maximum urine flow rate, proportion for value before administration (%) ([5]; 0.3 mg/kg): 49.2 ± 7.0%
- Bladder compliance, proportion for value before administration (%) ([5]; 0.3 mg/kg): 68.3 ± 7.9%
- Bladder volume, proportion for value before administration (%) ([5]; 0.3 mg/kg): 80.0 ± 4.5%
- change of the parameters at urination and at collection of urine (text) [5]: lowered the bladder compliance significantly
- change of the parameters at urination and at collection of urine (text) ([5]; listed as distigmine): did not show clear action for the amount of urination and the maximum urine flow rate and increased urination pressure significantly
- inhibition of the activity of human acetylcholine esterase [1]: inhibited the activity of human acetylcholine esterase
- selectivity for acetylcholine esterase inhibitory activity (text, words) [1]: had scarcely selectivity
- Selectivity b/a ([1]; BuChE IC50/AChE IC50 (Table 2)): 1.4
- pIC50 ([1]; mean value of twice tests, read-out: Acetylcholine esterase IC50): 6.42
- inhibitory activity for human butyrylcholine esterase [2]: inhibitory activity was confirmed
- pIC50 ([2]; mean value of twice tests, read-out: Butyrylcholine esterase IC50): 6.27
- Tension (%) ([4]; 0.1 μM, 30 minutes, change of basic tension, 100 mM KCl contraction = 100%): −1.49 ± 0.30%
- Tension (%) [4, 8]: −0.78 ± 0.50%
- Tension (%) [4, 9]: −0.35 ± 0.73%
- Tension (%) [4, 10]: 0.64 ± 0.49 %
- effect on basic tension [4]: increased tension slightly but significantly

SMILES: CN(C)C(=O)Oc1ccc[n+](C)c1 [Pyridostigmine]
- Tension (%) [4, 8]: −1.49 ± 0.52%
- Tension (%) [4, 9]: 0.04 ± 0.38%
- Tension (%) [4, 10]: 2.87 ± 0.85 %
- Tension (%) ([4]; 10 μM, 30 minutes, change of basic tension, 100 mM KCl contraction = 100%): 7.71 ± 1.30 %
- Tension (%) ([4]; 30 μM, 30 minutes, change of basic tension, 100 mM KCl contraction = 100%): 14.38 ± 1.62 %
- effect on basic tension [4]: increased basic tension significantly and concentration-dependently
